Assay results published in the NIST ThermoML archive (doi:10.1021/je0496995).

Assays:
[1] = Liquid; for viscosity: 101.3 kPa, Capillary tube (Ostwald / Ubbelohde) method; for mass density: 101.33 kPa, Pycnometric method
[2] = wn = mass fraction of the nth substance listed; settings: 101.3 kPa, Liquid; for viscosity: Capillary tube (Ostwald / Ubbelohde) method; for mass density: Pycnometric method
[3] = mn = molality of the nth substance listed, in mol/kg; settings: Liquid, m2 = 0; for viscosity: 101.3 kPa, Capillary tube (Ostwald / Ubbelohde) method; for mass density: 101.33 kPa, Pycnometric method

Cc1cccnc1 [3-methylpyridine]
[1]
Settings	mass density [kg/m3]	viscosity [mPa·s]
293.15 K	956	0.9459
303.15 K	946.6	0.8318
313.15 K	937.7	0.7352
323.15 K	928.3	0.6565
333.15 K	919.3	0.5936
343.15 K	910.3	0.539

Cc1cccnc1 [3-methylpyridine] + O
[2]
Settings	mass density, w1 = 0.1 [kg/m3]	mass density, w1 = 0.15 [kg/m3]	viscosity, w2 = 0.1 [mPa·s]	viscosity, w2 = 0.15 [mPa·s]
293.15 K	997.8	997.5	1.291	1.448
303.15 K	994.4	993.7	1.002	1.143
313.15 K	990.2	989.2	0.8117	0.9152
323.15 K	985.2	983.7	0.6796	0.7673
333.15 K	979.6	977.7	0.5794	0.6568
343.15 K	973.7	971.7	0.5053	0.5712

Cc1cccnc1 [3-methylpyridine] + O=C(O)c1cccnc1
[3]
Settings	mass density [kg/m3]	viscosity [mPa·s]
293.15 K	956	0.9459
303.15 K	946.6	0.8318
313.15 K	937.7	0.7352
323.15 K	928.3	0.6565
333.15 K	919.3	0.5936
343.15 K	910.3	0.539
